Test results taken from the supplement of paper PMC10307832.

Key:
Experiment in all cases: relative viability (nuclei count vs DMSO), 5 days (fraction); higher = more cells survive
XMD8-85 + Phenformin = compound: CN1CCN(CC1)C2=CC(=C(C=C2)NC3=NC=C4C(=N3)N(C5=CC=CC=C5C(=O)N4C)C)OC [XMD8-85] + N=C(N)NC(=N)NCCc1ccccc1 [Phenformin] (partner 250 µM)
How it was run: (§1)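 Relative viability was taken as the ratio of nuclei in treated wells to nuclei in vehicle wells. Lung cancer cell lines in 1536-well plates received compounds by pin tool one day after seeding, either one drug alone or a fixed anchor-drug dose plus five library-drug doses (not always all listed) in √10 steps. Nuclei were counted on 4× images after 5 days of treatment, and values are medians of duplicate plates.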

XMD8-85 + Navitoclax = compound: CN1CCN(CC1)C2=CC(=C(C=C2)NC3=NC=C4C(=N3)N(C5=CC=CC=C5C(=O)N4C)C)OC [XMD8-85] + CC1(C)CCC(c2ccc(Cl)cc2)=C(CN2CCN(c3ccc(C(=O)NS(=O)(=O)c4ccc(N[C@H](CCN5CCOCC5)CSc5ccccc5)c(S(=O)(=O)C(F)(F)F)c4)cc3)CC2)C1 [Navitoclax] (partner 0.5 µM)
How it was run: as §1

4EGI-1 + Alpelisib = compound: O=C(O)C(Cc1ccccc1[N+](=O)[O-])=NNc1nc(-c2ccc(Cl)c(Cl)c2)cs1 (mixture of isomers) [4EGI-1] + Cc1nc(NC(=O)N2CCC[C@H]2C(N)=O)sc1-c1ccnc(C(C)(C)C(F)(F)F)c1 [Alpelisib] (partner 2 µM)
How it was run: as §1

4EGI-1 + Luminespib = compound: O=C(O)C(Cc1ccccc1[N+](=O)[O-])=NNc1nc(-c2ccc(Cl)c(Cl)c2)cs1 (mixture of isomers) [4EGI-1] + CCNC(=O)c1noc(-c2cc(C(C)C)c(O)cc2O)c1-c1ccc(CN2CCOCC2)cc1 [Luminespib] (partner 0.01 µM)
How it was run: as §1

| Cell Line | relative viability (XMD8-85 + Phenformin; first compound 0.08 µM) | relative viability (XMD8-85 + Phenformin; first compound 0.253 µM) | relative viability (XMD8-85 + Phenformin; first compound 0.8 µM) | relative viability (XMD8-85 + Phenformin; first compound 2.53 µM) | relative viability (XMD8-85 + Phenformin; first compound 8 µM) | relative viability (XMD8-85 + Navitoclax; first compound 0.08 µM) | relative viability (XMD8-85 + Navitoclax; first compound 0.253 µM) | relative viability (XMD8-85 + Navitoclax; first compound 0.8 µM) | relative viability (XMD8-85 + Navitoclax; first compound 2.53 µM) | relative viability (XMD8-85 + Navitoclax; first compound 8 µM) | relative viability (4EGI-1 + Alpelisib; first compound 0.5 µM) | relative viability (4EGI-1 + Alpelisib; first compound 5 µM) | relative viability (4EGI-1 + Alpelisib; first compound 50 µM) | relative viability (4EGI-1 + Luminespib; first compound 0.5 µM) | relative viability (4EGI-1 + Luminespib; first compound 5 µM) | relative viability (4EGI-1 + Luminespib; first compound 15.81 µM) | relative viability (4EGI-1 + Luminespib; first compound 50 µM) | relative viability (4EGI-1 + Alpelisib; first compound 1.581 µM) | relative viability (4EGI-1 + Alpelisib; first compound 15.81 µM) | relative viability (4EGI-1 + Luminespib; first compound 1.581 µM) |
| --- | --- | --- | --- | --- | --- | --- | --- | --- | --- | --- | --- | --- | --- | --- | --- | --- | --- | --- | --- | --- |
| PC-14 | 0.524 | 0.66 | 0.575 | 0.611 | 0.193 | 1.01 | 1.02 | 1.03 | 0.959 | 0.628 | 1.05 | 0.906 | 0.941 | 0.466 | 0.195 | 0.155 | 0.155 |  |  |  |
| NCI-H520 | 0.574 | 0.6 | 0.557 | 0.543 | 0.446 | 1.2 | 1.19 | 1.05 | 1.06 | 0.829 | 0.918 | 1.02 | 0.543 | 0.231 | 0.184 | 0.256 | 0.205 | 0.754 | 0.866 | 0.241 |
| NCI-H2342 | 0.646 | 0.56 | 0.682 | 0.608 | 0.599 |  |  |  |  |  |  |  |  | 0.854 | 0.724 | 0.904 | 0.677 |  |  | 0.758 |
| NCI-H3122 | 0.388 | 0.383 | 0.389 | 0.373 | 0.32 | 1.08 | 1.01 | 1.09 | 1.06 | 1.1 | 0.866 | 0.792 | 0.646 | 0.082 | 0.0842 | 0.106 | 0.084 | 0.718 | 0.775 | 0.129 |
| HCC-78 | 0.705 | 0.84 | 0.695 | 0.665 | 0.46 | 0.891 | 0.882 | 0.6 | 0.682 | 0.58 | 0.439 | 0.319 | 0.218 |  |  |  |  | 0.315 | 0.32 |  |
| SW 1573 | 0.466 | 0.37 | 0.392 | 0.389 | 0.306 | 1.13 | 1.02 | 0.896 | 0.801 | 0.545 | 1.1 | 0.879 | 0.663 | 0.227 | 0.248 | 0.168 | 0.116 | 0.644 | 0.785 | 0.198 |
| RERF-LC-KJ | 0.46 | 0.445 | 0.406 | 0.379 | 0.326 | 0.712 | 0.96 | 0.982 | 1.03 | 0.565 | 0.924 | 0.728 | 0.659 | 1.16 | 1.17 | 0.994 | 0.281 |  | 0.677 |  |
| SK-MES-1 | 0.699 | 0.624 | 0.645 | 0.643 | 0.427 | 1.22 | 1.33 | 1.06 | 1.19 | 0.866 | 0.968 | 0.911 | 0.827 | 0.705 | 0.831 | 0.669 | 0.188 | 0.735 | 0.773 | 0.686 |
| NCI-H1993 | 0.565 | 0.64 | 0.512 | 0.436 | 0.495 | 0.848 |  | 0.885 | 0.968 | 0.766 | 0.714 | 0.72 | 0.659 | 1.03 | 0.801 | 0.637 | 0.496 | 0.666 | 0.675 | 0.786 |
| NCI-H1915 | 0.359 | 0.349 | 0.377 | 0.354 | 0.348 | 0.859 | 0.817 | 0.791 | 0.771 | 0.622 | 1.09 | 0.982 | 0.695 | 0.838 | 0.774 | 0.572 | 0.222 | 0.808 | 1.07 | 0.606 |
| NCI-H1650 | 0.411 | 0.449 | 0.401 | 0.36 | 0.178 | 1.15 | 1.32 | 1.29 | 1.16 | 0.439 |  |  |  | 0.197 | 0.19 | 0.203 | 0.221 |  |  |  |
| HCC-44 | 0.241 | 0.267 | 0.184 | 0.205 | 0.108 | 1.03 | 1.03 | 1.05 | 0.796 | 0.434 | 0.86 | 0.79 | 0.182 | 1.22 | 0.979 | 0.764 | 0.23 | 0.485 | 0.532 |  |
| NCI-H2170 | 0.4 | 0.431 | 0.447 | 0.41 | 0.366 | 0.62 | 0.682 | 0.64 | 0.675 | 0.666 | 0.865 | 0.849 | 0.344 | 0.931 | 0.778 | 0.741 | 0.352 | 0.803 | 0.768 | 0.635 |
| NCI-H1975 | 0.402 | 0.409 | 0.446 | 0.464 | 0.312 | 1.25 | 1.12 | 1.09 | 1.09 | 0.532 | 0.673 | 0.702 | 0.469 | 0.337 | 0.214 | 0.261 | 0.159 | 0.81 | 0.627 |  |
| HCC-827 | 0.389 |  |  | 0.49 | 0.45 | 1.02 | 1.01 | 0.985 | 0.909 | 1.03 | 1.07 | 0.897 | 0.85 | 0.672 | 0.661 |  | 0.581 | 0.957 |  | 0.804 |
